Measurements as given in the METLIN SMRT retention time set (Domingo-Almenara et al. 2019).

Experiment: gradient 5% acetonitrile 3 min, to 50% in 2 min, to 85% in 15 min, held 3 min, 100 µL/min
Conditions: column: Zorbax Extend-C18 2.1 x 50 mm; eluents: water / acetonitrile, 0.1% formic acid
Procedure, shortened: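 In both positive and negative ionization mode, a quadrupole time-of-flight mass spectrometer coupled to HPLC analyzed pure standards run in mixtures of ~100 molecules. The Zorbax Extend-C18 column (2.1 × 50 mm, 1.8 μm) was operated at 100 μL/min with water and acetonitrile, each containing 0.1% formic acid. The dead volume was 40 μL and the dwell volume 900 μL. Retention time came from adduct peaks that were computationally picked and individually inspected by hand.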

| SMILES | RP-LC retention time [s] |
| --- | --- |
| O=C1CCCN1c1ccc(Cn2cc(-c3nc(-c4cccc(F)c4)no3)ccc2=O)cc1 | 608 |
| O=C(Nc1cc(-c2ccccn2)no1)c1ccccc1F | 774 |
| Cc1cc(Cl)ccc1NC(=O)N1C[C@@H]2C[C@H](NC(=O)c3ccccc3)[C@H]1C2 | 907 |
| COCCCNc1c(-c2cccc(F)c2)nc2sc(C(=O)N(C)C)c(C)n12 | 776 |
| COCC(=O)N1CCc2c([nH]c3ccccc23)C1c1ccccc1 (configuration not stated) | 935 |
| CN(C)c1cccc(C(=O)NC2CCN(c3cc(-c4cccs4)[nH]n3)C2)c1 (configuration not stated) | 668 |
| CCOc1ccc(N2C(=O)C3N=NN(Cc4nc(-c5ccccc5Cl)no4)C3C2=O)cc1 (configuration not stated) | 996 |
| COCCN(Cc1ccc(Cl)cc1)Cc1cc(=O)n2ccccc2n1 | 635 |
| CNC(=O)c1sc2nc(-c3ccc(OC)cc3)c(NC(C)(C)C)n2c1C | 737 |
| Cc1nnc(NC(=O)c2ccc(OCc3nc(-c4ccco4)cs3)cc2)s1 | 815 |
| O=C(O)CCCCC1SCC2NC(=O)NC21 (configuration not stated) | 634 |
| Cc1nc(CNS(=O)(=O)c2cc([N+](=O)[O-])ccc2C)cs1 | 716 |
| Cn1c(=O)n(C)c2cc(CNc3ccc(Cl)cc3Cl)ccc21 | 1070 |
| C=CCn1c(=O)c2ccccc2n(Cc2nc(-c3cccc(C(F)(F)F)c3)no2)c1=O | 1110 |
| FC(F)(F)c1ccc(C2CNCCO2)cc1 (configuration not stated) | 570 |
| Cc1ccc(-c2nc(N3CC4(C)CC3CC(C)(C)C4)c3ccccc3n2)cc1 (configuration not stated) | 1060 |
| COc1ccc(-c2c(C(=O)NCc3cccs3)nc3ccccn23)cc1 | 828 |
| Cc1ccc(CNC(=O)Cn2ccc3sccc3c2=O)cc1 | 740 |
| Cc1ccc(NC(=O)Cc2csc3nc(-c4ccc(C)c(C)c4)cn23)cc1C | 850 |
| Cc1ccc(-c2noc(-c3ccccc3S(=O)(=O)Nc3ccc(S(N)(=O)=O)cc3)n2)cc1 | 933 |
| COc1ccc(C(=O)Nc2nc(CC(=O)NCc3cccs3)cs2)cc1 | 739 |
| O=C(Nc1ccc(F)cc1F)N1CCCC1c1nc(-c2ccc(F)cc2F)no1 (configuration not stated) | 946 |
| CC1=NS(=O)(=O)N(Cc2ccccc2)C=C1C(=O)OCc1ccc(F)cc1 | 1080 |
| CN1C(=O)c2cccnc2Sc2cc(NC(=O)c3ccc(C(F)(F)F)cc3)ccc21 | 910 |
| O=C(Nc1cccc(Cl)c1)N1CCCC1c1nc(-c2ccc(F)cc2F)no1 (configuration not stated) | 1030 |
| O=C(Nc1ccc(F)cc1F)c1c(O)c2cccnc2n(-c2ccccc2)c1=O | 1250 |
| Cc1cc(NC(=O)CSc2nnc(NC(=O)c3snnc3C)s2)no1 | 666 |
| O=c1c2cc(-c3cccs3)nn2cnn1Cc1nc(-c2ccccc2)no1 | 1050 |
| COc1cc2nc(N3CCC(N4CCCCC4)CC3)nc(NC3CCCCCC3)c2cc1OC | 662 |

Continued, values first:

| RP-LC retention time [s] | SMILES |
| --- | --- |
| 720 | O=C(NCCCN1CCOCC1)C1CCCN(c2nc3ccccc3n(Cc3ccccc3)c2=O)C1 (configuration not stated) |
| 629 | COc1ccc(-c2cc(N3CCCC(C(=O)Nc4cccc5cccnc45)C3)ncn2)cc1 (configuration not stated) |
| 837 | COc1ccc(C(=O)N2CCN(c3cc(-c4cccs4)[nH]n3)CC2)cc1F |
| 633 | CC(NC(=O)c1ccc(NC(=O)C2CC2)cc1N1CCCCCC1)c1ccccn1 (configuration not stated) |
| 690 | CC1CCCN(CC2CCN(S(=O)(=O)Cc3ccc(Cl)cc3)CC2)C1 (configuration not stated) |
| 742 | Cn1ncc2c(N3CCCC3)nc(C(=O)NCc3cccs3)nc21 |
| 580 | CCCc1nc2cccnc2n1C1CCN(C(=O)c2ccc(C)c(N3CCCC3=O)c2)C1 (configuration not stated) |
| 592 | CC(=O)N1c2ccc(S(=O)(=O)N3CCCCC3)cc2CC1C(=O)NCCN1CCCC1 (configuration not stated) |
| 855 | CC(C)(C)C(=O)N1CCC(C(=O)Nc2cccc(Br)c2)CC1 |
| 882 | CCn1c(=O)c(N2CCC(NC(=O)NCCc3ccccc3)CC2)nc2ccccc21 |
| 990 | O=C(CC1CCCC1)Nc1cnc(-c2ccccc2)nc1 |
| 696 | COCc1nc2cccnc2n1C1CCN(C(=O)Nc2cc(OC)ccc2OC)CC1 |
| 1070 | O=C(c1ccco1)N1CCc2cc(-c3csc(C4CC4)n3)ccc21 |
| 649 | O=S(=O)(c1ccc2nc(N3CCN(c4ccccn4)CC3)ccc2c1)N1CCCCC1 |
| 700 | CO[C@H]1C(=O)N(C(C)C)[C@H]1C1CCN(S(=O)(=O)c2cccnc2)CC1 |
| 771 | CCCN1CCn2cc(S(=O)(=O)Nc3ccc(C)cc3)cc2C1=O |
| 632 | CCC(C(=O)NCCN1CCCC1)n1c2ccccc2c2cnn(C)c(=O)c21 (configuration not stated) |
| 698 | COCCNC(=O)CSc1cc(N2CCN(c3ccccc3OC)CC2)ncn1 |
| 830 | COC(=O)c1ccc(NC(=O)N2CCC(n3cnc4ccc(Cl)cc4c3=O)CC2)cc1 |

| RP-LC retention time [s] | SMILES |
| --- | --- |
| 579 | CC1CCCN(CCCNC(=O)CCC(=O)N2CCc3c(c(C(=O)N4CCCC4)nn3C)C2)C1 (configuration not stated) |
| 669 | O=C(NCC1CCCO1)c1ccc(CN2CCN(Cc3ccccc3)C(=O)C2=O)cc1 (configuration not stated) |
| 1040 | Cc1ccc2c(c1)N(Cc1ccccc1C)N=C(C(=O)N1CCCCC1)S2(=O)=O |
| 774 | CC(C)NC(=O)N1CCOc2ccccc21 |
| 856 | COc1ccc(C)cc1NC(=O)Cn1nc(N2CCOCC2)c2ccccc2c1=O |
| 700 | CCN1CCn2cc(S(=O)(=O)Nc3cccc(OC)c3)cc2C1=O |
| 781 | O=C(NCC1CCN(C(=O)c2ccccc2F)CC1)c1ccc(Cl)s1 |
| 646 | CCn1c(N2CCCC(C(=O)NCCOC)C2)cc(=O)n(C)c1=O (configuration not stated) |
| 921 | CCOc1nccnc1NC1CCN(C(=O)c2cccs2)CC1 |
| 606 | CCCNC(=O)C1CCN(c2ccc(SCC(=O)NCc3ccc4c(c3)OCO4)nn2)CC1 |
| 732 | COc1ccccc1N1CCN(c2cc(SCC(=O)NCC3CCCO3)ncn2)CC1 (configuration not stated) |
| 576 | Cc1cc(C(=O)N2CC(N(C(=O)NC(C)C)C3CCOCC3)C2)nn1C |
| 790 | O=C1CN(CCc2cccs2)C2CS(=O)(=O)CC2N1c1ccc(Cl)cc1 (configuration not stated) |
| 858 | COCCc1noc(C2CN(S(=O)(=O)Cc3ccccc3F)C2)n1 |
| 841 | COc1ccc(C)cc1NC(=O)c1cn2c(n1)CSCC2 |
| 738 | Cc1nnc2c(=O)n(CC(=O)NCCN3CCc4ccccc4C3)c3cccnc3n12 |
| 638 | CCCCN1CCN(C(=O)c2cnc(-c3ccccc3)nc2-c2ccncc2)CC1 |
| 797 | Cc1[nH]c(C(=O)N2CCC(CC(=O)NCc3ccc4c(c3)OCO4)CC2)c(C)c1C(=O)OC(C)C |
| 600 | CCOC(=O)c1cc2ccsc2n1CC(=O)NCCN1CCN(C)CC1 |
